{"source": "ChEMBL document CHEMBL5291721", "about": "“A preclinical secondary pharmacology resource illuminates target-adverse drug reaction associations of marketed drugs” (Nat Commun, 2023); also: assay procedure not described here"}
{"target": "Voltage-gated inwardly rectifying potassium channel KCNH2 (Homo sapiens, UniProt Q12809)", "sequence (Q12809 whole entry)": "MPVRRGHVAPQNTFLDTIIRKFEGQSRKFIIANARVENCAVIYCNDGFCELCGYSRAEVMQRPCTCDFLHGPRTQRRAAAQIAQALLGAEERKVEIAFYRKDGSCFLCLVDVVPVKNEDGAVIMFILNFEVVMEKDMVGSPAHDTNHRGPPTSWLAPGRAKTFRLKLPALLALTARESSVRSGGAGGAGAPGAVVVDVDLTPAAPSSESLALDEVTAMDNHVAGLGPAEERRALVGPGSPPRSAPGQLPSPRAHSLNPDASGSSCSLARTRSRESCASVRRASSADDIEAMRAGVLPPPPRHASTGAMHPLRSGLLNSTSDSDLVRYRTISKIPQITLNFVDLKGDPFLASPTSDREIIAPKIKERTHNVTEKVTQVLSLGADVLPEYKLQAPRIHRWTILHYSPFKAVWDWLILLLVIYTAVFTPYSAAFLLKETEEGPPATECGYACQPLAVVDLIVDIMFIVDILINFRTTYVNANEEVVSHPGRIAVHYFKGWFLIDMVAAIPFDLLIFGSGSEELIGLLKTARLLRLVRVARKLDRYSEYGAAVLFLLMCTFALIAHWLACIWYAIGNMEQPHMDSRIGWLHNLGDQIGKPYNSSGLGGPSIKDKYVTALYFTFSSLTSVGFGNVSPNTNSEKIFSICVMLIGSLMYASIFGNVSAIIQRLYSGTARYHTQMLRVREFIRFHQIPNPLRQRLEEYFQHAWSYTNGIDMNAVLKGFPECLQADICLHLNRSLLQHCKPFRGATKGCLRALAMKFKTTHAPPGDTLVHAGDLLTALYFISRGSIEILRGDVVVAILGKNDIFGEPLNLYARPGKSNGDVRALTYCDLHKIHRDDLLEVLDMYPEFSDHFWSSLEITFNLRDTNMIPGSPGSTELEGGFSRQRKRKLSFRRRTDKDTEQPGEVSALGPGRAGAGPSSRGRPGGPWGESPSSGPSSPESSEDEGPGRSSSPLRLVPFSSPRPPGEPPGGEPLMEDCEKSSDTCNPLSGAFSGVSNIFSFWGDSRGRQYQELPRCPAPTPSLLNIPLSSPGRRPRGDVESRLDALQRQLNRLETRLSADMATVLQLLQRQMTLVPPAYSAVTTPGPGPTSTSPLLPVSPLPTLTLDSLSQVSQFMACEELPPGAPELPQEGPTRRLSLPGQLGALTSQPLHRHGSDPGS", "assay_type": "functional", "units": {"AC50": "µM"}}
{"compound": "C[N+]1(C)CCC(=C(c2ccccc2)c2ccccc2)CC1", "AC50": 0.187}
{"compound": "C[N+](C)(C)CCOP(=O)([O-])OC[C@H](O)CO", "AC50": "> 30"}
{"compound": "CN(C)Cc1nnc2n1-c1ccc(Cl)cc1C(c1ccccc1)=NC2", "note": "[ADINAZOLAM]", "AC50": "> 30"}
{"compound": "Cc1ccccc1-n1c(CF)nc2ccc(N)cc2c1=O", "note": "[AFLOQUALONE]", "AC50": "> 30"}
{"compound": "CCC1(c2ccc(N)cc2)CCC(=O)NC1=O", "note": "(centres undefined) [AMINOGLUTETHIMIDE]", "AC50": "> 30"}
{"compound": "CC1=C(C(=O)OC(C)C)C(c2cccc([N+](=O)[O-])c2)C(C(=O)OC2CN(C(c3ccccc3)c3ccccc3)C2)=C(N)N1", "note": "(centres undefined) [AZELNIDIPINE]", "AC50": "> 30"}
{"compound": "CC(Cc1cccc(C(F)(F)F)c1)NCCOC(=O)c1ccccc1", "note": "(centres undefined) [BENFLUOREX]", "AC50": 5.6}
{"compound": "CCOC(=O)c1ccc(N)cc1", "note": "[BENZOCAINE]", "AC50": "> 30"}
{"compound": "CC(C)(Oc1ccc(CCNC(=O)c2ccc(Cl)cc2)cc1)C(=O)O", "note": "[BEZAFIBRATE]", "AC50": "> 30"}
{"compound": "C/C=C(/C(=C/C)c1ccc(O)cc1)c1ccc(O)cc1", "note": "[DIENESTROL]", "AC50": "> 30"}
{"compound": "CN[C@]1(c2ccccc2Cl)CCCCC1=O", "note": "[ESKETAMINE]", "AC50": "> 30"}
{"compound": "COc1ccc([C@@H]2CC(=O)c3c(O)cc(O)cc3O2)cc1O", "note": "[HESPERETIN]", "AC50": "> 30"}
{"compound": "CNCCc1ccc(OC(=O)C(C)C)c(OC(=O)C(C)C)c1", "note": "[IBOPAMINE]", "AC50": "> 30"}
{"compound": "CCOC(=O)C1=C(C)NC(C)=C(C(=O)OCC)C1c1ccccc1/C=C/C(=O)OC(C)(C)C", "note": "[LACIDIPINE]", "AC50": 17.8}
{"compound": "CCC[C@@H]1C[C@@H](C(=O)N[C@@H]([C@H]2O[C@H](SC)[C@H](O)[C@@H](O)[C@H]2O)[C@@H](C)O)N(C)C1", "note": "[LINCOMYCIN]", "AC50": "> 30"}
{"compound": "COC(=O)C1=C(C)NC(C)=C(C(=O)OCCN2CCN(C(c3ccccc3)c3ccccc3)CC2)C1c1cccc([N+](=O)[O-])c1", "note": "(centres undefined) [MANIDIPINE 6300]", "AC50": 0.82}
{"compound": "C=C1c2cccc(O)c2C(=O)C2=C(O)[C@]3(O)C(=O)C(C(N)=O)=C(O)[C@@H](N(C)C)[C@@H]3[C@@H](O)[C@H]12", "note": "[METHACYCLINE]", "AC50": "> 30"}
{"compound": "CN(Cc1cnc2nc(N)nc(N)c2n1)c1ccc(C(=O)N[C@@H](CCC(=O)O)C(=O)O)cc1", "note": "[METHOTREXATE]", "AC50": "> 30"}
{"compound": "Cc1ccccc1N1C(=O)c2cc(S(N)(=O)=O)c(Cl)cc2NC1C", "note": "(centres undefined) [METOLAZONE]", "AC50": "> 30"}
{"compound": "O=C(O)c1cccnc1Nc1cccc(C(F)(F)F)c1", "note": "[NIFLUMIC ACID]", "AC50": "> 30"}
{"compound": "O=C1c2cccc3c2[C@H](CCC3)CN1[C@@H]1CN2CCC1CC2", "note": "[PALONOSETRON]", "AC50": 0.89}
{"compound": "OC[C@H]1O[C@@H](n2cnc3c2NC=NC[C@H]3O)C[C@@H]1O", "note": "[PENTOSTATIN]", "AC50": "> 30"}
{"compound": "O=C1c2ccccc2C(=O)C1c1ccccc1", "note": "[PHENINDIONE]", "AC50": "> 30"}
{"compound": "CN[C@@H](C)[C@@H](O)c1ccccc1", "note": "[PSEUDOEPHEDRINE]", "AC50": "> 30"}
{"compound": "CCCN1CC(NS(=O)(=O)N(CC)CC)CC2Cc3c(O)cccc3CC21", "note": "(centres undefined) [QUINAGOLIDE]", "AC50": 6.5}
{"compound": "C[C@]12CCC(=O)C[C@@H]1CC[C@@H]1[C@@H]2CC[C@]2(C)[C@@H](O)CC[C@@H]12", "note": "[STANOLONE]", "AC50": "> 30"}
{"compound": "O=C1OC(OC(=O)c2cccnc2Nc2cccc(C(F)(F)F)c2)c2ccccc21", "note": "(centres undefined) [TALNIFLUMATE]", "AC50": "> 30"}
{"compound": "C[C@]12C=CC(=O)C=C1CC[C@@H]1[C@@H]2CC[C@]2(C)OC(=O)CC[C@@H]12", "note": "[TESTOLACTONE]", "AC50": "> 30"}
{"compound": "CCOC(=O)c1c(CSc2ccccc2)n(C)c2cc(Br)c(O)c(CN(C)C)c12", "note": "[UMIFENOVIR]", "AC50": 0.61}
